“Also recorded” adds a separate entry of the source. Read-outs that look alike come from different tables or passages of the source.

Data set [1] has as its system LC3-II. Kind of data set: Western blotting and immunofluorescence for autophagy, primary cells. In kind it is cell-based, human. The conditions noted are these: all primary cells. The protocol: γH2AX staining: Cells were seeded onto 8-well collagen I-coated chamber slides. […] After blocking of non-specific binding with 2% BSA in PBS with 1% goat serum for 1 hour at RT, primary antibody (anti-phospho-histone H2A.X (Ser139), clone JBW301, Millipore, Cat no. 05–636) at 1∶1000 dilution was added in 3% BSA in PBS at 4°C overnight followed by three washes in 0.5% BSA in PBS with 0.175% Tween 20. Following incubation with secondary antibody (Goat anti-mouse Alexa Fluor 568, Invitrogen, Cat no. A-11004) at 1∶1000 dilution for 45 min in 3% BSA in PBS and three more washes in the same washing buffer, the slides were mounted using Vectashield with DAPI (Vector Laboratories, Cat no. H-1200). LC3-B staining: Cells were treated as above then fixed with 4% paraformaldehyde, followed by an incubation in 0.3% Triton X-100. After blocking with 10% normal goat serum, cells were incubated in anti-LC3B 1∶200 (Ab51520, abcam) diluted in 0.1% Triton X-100 in PBS. Secondary antibody was Alexa Fluor 568 goat anti-rabbit IgG 1∶1000 (Invitrogen A11011).
For orientation: A western blot detects proteins with antibodies after separation by electrophoresis.

Data set [2] has as its system PCa Primary cells (Gl7). Kind of data set: MTS assay, primary cultures from prostate carcinoma Gleason 6/7. The format is cell-based, human. The source says: Primary prostate epithelial cells were isolated from human tissue samples. The samples were collected with ethical permission from York District Hospital (York, UK) and Castle Hill Hospital (Cottingham, UK). Benign prostatic hyperplasia (BPH) and prostate cancer samples were obtained from TURP (transurethral resection of the prostate), radical prostatectomy (laparoscopic and open) and cystectomy operations. All patients gave written consent for their tissue to be used for research and all patient samples were anonymised. Permission was approved by the Local Research Ethical Committees, associated with York District Hospital and Castle Hill Hospital. Permission was administered by the Yorkshire and Humber Research Ethics Committee.
Prostate epithelial cells were cultured as previously described in stem cell media (SCM) consisting of keratinocyte serum-free media (KSFM) with bovine pituitary extract (BPE) and epidermal growth factor (EGF), glutamine, stem cell factor (SCF), granulocyte macrophage colony stimulating factor (GM-CSF), leukaemia inhibitory factor (LIF) and cholera toxin. Cells were grown with STO feeder cells (irradiated at 60 Gy) on collagen I-coated plates.
This assay was performed for the initial screening of the effect of the Pd complex on the cell lines and the whole cell population of primary cultures. The CellTiter 96® Aqueous One Solution Cell Proliferation Assay kit (G3580, Promega, Madison, WI, USA) was used and the manufacturer’s instructions were followed. Briefly, after treating cells that were seeded at a density of 5,000 cells per well in a 96-well plate in triplicate for a desired period (24 h, 48 h, 72 h), 20 µL of reagent was added to each well. Following 2.5 h incubation at 37°C, the absorbance was read at 485 nm using a plate reader (PolarStar Optima, BMG Labtech, UK). Percent viability was calculated using the formula (% Viability = [(Sample Absorbance/Control Absorbance)]×100.
MTS and ATP assays were performed in triplicate and data presented as the mean +/− standard deviation. IC50 values (Table 3 and Table 4) were calculated from graphs of transformed data following application of the nonlinear regression (curve fit) that represents the log(inhibitor) ‘v’ normalized response (GraphPad Prism software) (Supplementary Figures S1 and S2). For significance calculations, the Wilcoxon rank sum test was used (Sigmaplot). Flow cytometry analysis was carried out in triplicate and results are presented as an average with error bars indicating the standard error.
Background: Tetrazolium assays rely on reduction of a dye to a coloured formazan, in cell work by metabolically active cells.

In data set [3] the test system is PNT2-C2, BPH-1, P4E6, PC-3 and LNCaP. Kind of data set: Flow cytometry cell cycle analysis, cell lines. The format is cell-based, human. The protocol: (§1) Following drug treatment, floating cells in the media were pooled with adherent cells, which were collected by trypsinisation. Following centrifugation cells were resuspended in 0.5 ml PBS. Cells were fixed in 2 ml ice cold 70% ethanol, which was added in a dropwise fashion while vortexing. Cells were incubated on ice for 30 min then washed in 5 ml PBS and resuspended in 0.4 ml PBS. Following storage at 4°C overnight, 50 µl of RNAse (1 mg/ml) and 50 µl of propidium iodide (1 mg/ml) were added to the cells. Following incubation at 37°C for 30 min the cells were analysed for 2N and 4N DNA content on a flow cytometer (Cyan ADP Analyser, Beckman Coulter).

For data set [4], the system named is primary prostate epithelial cells. Nature of the data set: Flow cytometry cell cycle analysis, primary cells. In kind it is cell-based, human. The following applies: primary cells. The protocol:
as §1

Data set [5] deals with stem cells (SCs), transit-amplifying cells (TAs) and committed basal cells (CBs). Kind of data set: ATP viability assay on fractionated primary cells. In kind it is cell-based. The protocol:
Epithelial cells from human tumour or BPH materials were cultured for several weeks and the cells treated at very low passages. The cultured basal cell population were trypsinized, resuspended in SCM and then plated on BSA-blocked collagen I-coated plates. […] The cells that attached to substratum were trypsinised, resuspended in MACs buffer and incubated with CD133-microbeads (Cat no. 130-050-801, Miltenyi Biotec Inc., Auburn, CA, USA). MACs MS columns (Cat no. 130-042-201, Miltenyi Biotec Inc., Auburn, CA, USA) were used to select the CD133^+ and CD133^− cells. Finally, the three cell populations were obtained: stem cells (SCs) - α2β1integrin^hi/CD133^+, transit-amplifying cells (TAs) - α2β1integrin^hi/CD133^− and committed basal cells (CBs) - α2β1integrin^lo.
This assay was employed for the bioluminescent determination of the adenosine 5′-triphosphate (ATP) released from fractionated living cells (cancer stem cells, transit amplifying cells and committed basal cells). As ATP is rapidly degraded in dead cells, high intracellular levels provide a selective assay for living cells. The ATP-bioluminescent somatic cell assay kit (FLASC, Sigma-Aldrich, Saint Louis, MO, USA) was used with protocol modifications. Briefly, 50–500 cells per well were seeded in a collagen-coated 96 well plate in triplicate. After treating cells for 72 h, 150 µL of medium was removed from each well. 50 µL of cell extraction reagent was added into each original well. Following 20 min incubation at RT, 50 µL of cell extract was transferred to a white 96-well plate. Finally, 50 µL of ATP assay mix solution was added into the wells and luminescence was read using a plate reader (PolarStar Optima, BMG Labtech, UK). Percent viability was calculated using the formula (% Viability = [(Sample RLU/Control RLU)]x100 where RLU refers to relative light units.

As for [PdCl(terpy)](sac)⋅2 H2O [Pd complex], the “LC3-II (autophagy)” value in data set [1] is given as “clear increase in LC3-II”. Moreover, the IC50 in data set [2] (PCa primary cells (Gl7), sample 06211rb, 72 h, read-out: IC50) was 11.1 µM; in data set [2] (PCa primary cells (Gl7), sample 06411lb, 72 h, read-out: IC50), 5.2 µM; in data set [2] (PCa primary cells (Gl7), sample 06411ra, 72 h, read-out: IC50), 3.78 µM; in data set [2] (PCa primary cells (Gl7), sample 06611lb, 72 h, read-out: IC50), 13.1 µM; in data set [2] (PCa primary cells (Gl7), sample 06711rb, 72 h, read-out: IC50), 8.24 µM; in data set [2] (PCa primary cells (Gl7), sample 07011la, 72 h, read-out: IC50), 5.36 µM. In addition, the IC50 stood at 6.03 µM in data set [2] (PCa primary cells (Gl7), sample 07011lb, 72 h, read-out: IC50); 5.37 µM in data set [2] (PCa primary cells (Gl7), sample 07311ra, 72 h, read-out: IC50); 6.3 µM in data set [2] (PCa primary cells (Gl7), sample 22412, 72 h, read-out: IC50); 7.16 µM in data set [2] (average of PCa primary cells (Gl7; Gleason 6/7), 72 h, read-out: IC50 AVERAGE). Besides, in data set [2] (malignant samples, both at 25 µM, 72 h, median values), the “reduction of cell viability compared to etoposide” value was found to be 10.66 fold. Moreover, the “sub-G1 DNA content (cell death)” value in data set [3] (PC3 cells) was “almost no change”; in data set [3] (all cell lines except PC3), “increase in cells with sub-G1 DNA content”. Moreover, the “S and G2 peaks” value in data set [3] (normal cells (BPH-1, PNT2-C2)) is “reduction in the S and G2 peaks”. In data set [4], the “cells with more than 4N DNA content” value is on record as “increase in cells with more than 4N DNA content”. In addition, the sub-G1 content entry in data set [4] is listed as “clear dose response showing increase in sub-G1 content”. In addition, in data set [5] (6 µM range, ATP assay), the “toxicity compared to cisplatin” value is recorded as “comparable toxicity to cisplatin”. The “anti-growth effect compared to 25 µM Pd complex and 25 µM etoposide” value in data set [5] (6.25 µM, 72 h, ATP assay, SC, TA, CB) is “less than 25 µM Pd complex but still more cytotoxic than 25 µM etoposide”. Further, the “cytotoxicity compared to 25 µM etoposide” value in data set [5] (25 µM, 72 h, ATP assay, stem cells (also TA, CB)) was “significantly more cytotoxic; also recorded: much more potent cytotoxic activity than etoposide”. Besides, the cell killing entry in data set [5] (50 µM, data not shown) is listed as “killed all cells”.

For orientation: IC50 means the concentration that inhibits the measured activity by half.

For the origin of these results see PMC3651166, “Differential Cytotoxic Activity of a Novel Palladium-Based Compound on Prostate Cell Lines, Primary Prostate Epithelial Cells and Prostate Stem Cells” (PLoS ONE, 2013).
